Like-named read-outs stand apart in the source and are kept apart here.
Key:
[1] = Solubility testing of gemfibrozil in solvents/cosolvents at 12 mg/ml and 32 mg/ml; format: physicochemical; conditions: tested at 12 and 32 mg/ml
Method: Two doses of gemfibrozil were considered for each solvent/cosolvent. A low dose gemfibrozil preparation: 60 mg gemfibrozil in 5 ml of solvent/cosolvent (12 mg/ml dose), and a high dose gemfibrozil preparation: 160 mg gemfibrozil in 5 mL of solvent/cosolvent (32 mg/ml dose). Table 5 below illustrates that the first six solvent/cosolvents achieved gemfibrozil solubilization at both the 12 mg/ml dose and the 32 mg/ml dose. The solvent/cosolvents included the sodium carbonate/bicarbonate buffer having a pH of 10.5, polyethylene glycol (PEG) 400, glyceryl monolinoleate, propylene glycol dicaprylate/dicaprate, propylene glycol, and glyceryl monooleate.
The citrate buffer having a pH of 4.5 with tocopheryl polyethylene glycol succinate (TPGS) achieved gemfibrozil solubilization only the 12 mg/ml dose. The remainder of the solvents/cosolvents were not able to solubilize gemfibrozil at either the low dose or the high dose concentration.

[2] = Solubility of gemfibrozil in PEG 400 over a concentration range; format: physicochemical; conditions: standing upright at room temperature overnight
Method: A concentrated stock solution of gemfibrozil was prepared in PEG 400. Gemfibrozil was evaluated for its solubility in PEG 400 over concentration range to determine an upper concentration that could be used to prepare a stock solution of gemfibrozil in liquid form. On the day of preparation gemfibrozil was dissolved in the PEG 400 at the indicated concentration. All samples were clear upon mixing. Following mixing, samples were stored standing upright at room temperature overnight.

[3] = cited from earlier work

Cc1ccc(C)c(OCCCC(C)(C)C(=O)O)c1 [Gemfibrozil, 5-(2,5-dimethylphenoxy)-2,2-dimethyl-pentanoic acid]
Gemfibrozil Solubility ([1]; Glycerol and Polysorbate 80): Not soluble | Gemfibrozil Solubility ([1]; Glyceryl monolinoleate): Soluble at 12 mg/ml and 32 mg/ml | Gemfibrozil Solubility ([1]; Glyceryl monooleate): Soluble at 12 mg/ml and 32 mg/ml | Gemfibrozil Solubility ([1]; Polyethylene glycol 400): Soluble at 12 mg/ml and 32 mg/ml | Gemfibrozil Solubility ([1]; Propylene glycol dicaprylate/dicaprate): Soluble at 12 mg/ml and 32 mg/ml | Gemfibrozil Solubility ([1]; Propylene glycol): Soluble at 12 mg/ml and 32 mg/ml | Gemfibrozil Solubility ([1]; Soybean oil): Not soluble | Gemfibrozil Solubility ([1]; pH 4.5 Citrate buffer and Poloxamer P188): Not soluble | Gemfibrozil Solubility ([1]; pH 4.5 Citrate buffer and Solutol HS15): Not soluble | Gemfibrozil Solubility ([1]; pH 4.5 citrate buffer and TPGS): Soluble at 12 mg/ml | Gemfibrozil Solubility ([1]; pH 10.5 Sodium carbonate/bicarbonate buffer): Soluble at 12 mg/ml and 32 mg/ml | solubility limit of gemfibrozil in PEG 400 [2]: 21.3 % w/w | solubility of gemfibrozil ([3]; in DMSO): ~16 mg/mL | solubility of gemfibrozil ([3]; in ethanol): approximately 30 mg/ml | solubility of gemfibrozil ([3]; in water): approximately 0.03 mg/ml
